Results reported in PubChem BioAssay AID248 (DTP/NCI, 2004).
“And” between values parts separate entries of the source, which are not always exact repeats. Equal values may be shown once. Toxic doses and inconclusive results are not listed.

Test system: L1210 leukemia ip in BDF1 mice, survival T/C
Assay: NCI In Vivo Anticancer Drug Screen. Data for tumor model L1210 Leukemia (intraperitoneal) in B6D2F1 (BDF1) mice
Details: endpoint: mean survival time, higher = longer survival
Outline: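 Ratio derived from survival: compound-dosed mice over vehicle-dosed mice, all bearing a transplantable tumor.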

[1] = dose: 100.0 mg/kg/injection, schedule: Q04DX003 (ip), vehicle: Klucel (hydroxypropylcellulose) (HPC)
[2] = dose: 200.0 mg/kg/injection, schedule: Q04DX003 (ip), vehicle: Klucel (hydroxypropylcellulose) (HPC)
[3] = dose: 400.0 mg/kg/injection, schedule: Q04DX003 (ip), vehicle: Klucel (hydroxypropylcellulose) (HPC)
[4] = dose: 50.0 mg/kg/injection, schedule: Q01DX009 (ip), vehicle: saline with Tween-80
[5] = dose: 100.0 mg/kg/injection, schedule: Q01DX009 (ip), vehicle: saline with Tween-80
[6] = dose: 200.0 mg/kg/injection, schedule: Q01DX009 (ip), vehicle: saline with Tween-80
[7] = dose: 100.0 mg/kg/injection, schedule: Q04DX003 (ip), vehicle: saline
[8] = dose: 200.0 mg/kg/injection, schedule: Q04DX003 (ip), vehicle: saline
[9] = dose: 400.0 mg/kg/injection, schedule: Q04DX003 (ip), vehicle: saline
[10] = dose: 100.0 mg/kg/injection, schedule: Q01DX001 (ip), vehicle: saline
[11] = dose: 200.0 mg/kg/injection, schedule: Q01DX001 (ip), vehicle: saline
[12] = dose: 400.0 mg/kg/injection, schedule: Q01DX001 (ip), vehicle: saline

How did the T/C (dose: 267.0 mg/kg/injection, schedule: Q01DX001 (ip), vehicle: saline) turn out when `O=C(O)C(CSC(c1ccccc1)(c1ccccc1)c1ccccc1)N=Cc1ccccc1O` (stereo not drawn) was run?
Its T/C is 154 % of control.

What about the T/C (dose: 600.0 mg/kg/injection, schedule: Q01DX001 (ip), vehicle: saline) of the same molecule?
Its T/C is 154 % of control.

`Nc1nc(-c2cccnc2)nc2c1cnn2-c1ccccc1` was tested. Which T/C (dose: 100.0 mg/kg/injection, schedule: Q01DX001 (ip), vehicle: other) did it give?
Its T/C is 100 % of control.

And the T/C (dose: 100.0 mg/kg/injection, schedule: Q04DX003 (ip), vehicle: other)?
Its T/C is 97 % of control.

And the T/C (dose: 200.0 mg/kg/injection, schedule: Q01DX001 (ip), vehicle: other)?
The T/C was 95 % of control.

And the T/C (dose: 200.0 mg/kg/injection, schedule: Q04DX003 (ip), vehicle: other)?
Its T/C is 104 % of control.

And the T/C (dose: 400.0 mg/kg/injection, schedule: Q01DX001 (ip), vehicle: other)?
Its T/C is 94 % of control.

And the T/C (dose: 400.0 mg/kg/injection, schedule: Q04DX003 (ip), vehicle: other)?
The T/C was 109 % of control.

For `C=CCc1cc(Cl)ccc1OCC(=O)O`, which T/C (dose: 100.0 mg/kg/injection, schedule: Q01DX009 (ip), vehicle: gum acacia) is on record?
Its T/C is 97 % of control.

And the T/C (dose: 200.0 mg/kg/injection, schedule: Q01DX009 (ip), vehicle: gum acacia)?
Its T/C is 96 % of control.

With `CC1CCC(C(C)C)C(NCc2cc(Br)cc(Br)c2O)C1` (stereo not drawn) as the molecule, how does the T/C [1] read?
The T/C was 98 % of control.

What about the T/C [2] of the same molecule?
Its T/C is 92 % of control.

What about the T/C [3] of the same molecule?
The T/C was 98 % of control.

What does the source list for `COC(=O)CC(C)C(C)(C)[N+](=O)[O-]` (stereo not drawn)?
T/C [4]: 92 % of control; T/C [5]: 92 % of control; T/C [6]: 92 % of control

How did the T/C [1] turn out when `CC(C)Nc1nc(NC(C)C)nc(NC(C)C)n1` was run?
Its T/C is 92 % of control.

What about the T/C [2] of the same molecule?
The T/C was 87 % of control.

And the T/C [3]?
The T/C was 90 % of control.

For `CCCCCCCC(=O)[O][Pb]([CH2]C)([CH2]C)[CH2]C`, which T/C (dose: 12.5 mg/kg/injection, schedule: Q04DX002 (ip), vehicle: DMSO) is on record?
The T/C was 114 % of control.

Which T/C [7] does the source give for `CC(=O)N(C)c1ccc(NC(=O)Nc2ccc([N+](=O)[O-])cc2Cl)cc1` here?
Its T/C is 96 % of control.

And the T/C [8]?
The T/C was 95 % of control.

What about the T/C [9] of the same molecule?
Its T/C is 88 % of control.

With `NS(=O)(=O)c1ccc(N=Nc2nc3[nH]c(=O)[nH]c(=O)c3[nH]2)cc1` as the molecule, how does the T/C [4] read?
The T/C was 97 % of control.

And the T/C [5]?
The T/C was 94 % of control.

What about the T/C [6] of the same molecule?
The T/C was 94 % of control.

Which T/C [7] does the source give for `N#CC1CNCCC1=N` (stereo not drawn) here?
The T/C was 96 % of control.

What about the T/C [8] of the same molecule?
The T/C was 96 % of control.

What about the T/C [9] of the same molecule?
Its T/C is 100 % of control.

For `O=C1C=CC(=O)N1CCCN1C(=O)C=CC1=O`, which T/C (dose: 2.2 mg/kg/injection, schedule: Q01DX Z (ip), vehicle: methylcellulose (MC)) is on record?
The T/C was 94 % of control.

And the T/C (dose: 3.3 mg/kg/injection, schedule: Q01DX Z (ip), vehicle: methylcellulose (MC))?
Its T/C is 88 % of control.

And the T/C (dose: 5.0 mg/kg/injection, schedule: Q01DX Z (ip), vehicle: methylcellulose (MC))?
The T/C was 96 % of control.

How did the T/C (dose: 50.0 mg/kg/injection, schedule: Q01DX001 (ip), vehicle: saline) turn out when `COc1ccc(C2(OC)Oc3cc(OC)ccc3-c3nc4ccccc4nc32)cc1` (stereo not drawn) was run?
The T/C was 101 % of control.

What about the T/C [10] of the same molecule?
The T/C was 101 % of control.

What about the T/C [11] of the same molecule?
The T/C was 95 % of control.

And the T/C [12]?
The T/C was 101 % of control.

What does the source list for `COC(=O)/C=C/NC(=O)c1ccccc1C(=O)OC`?
T/C (dose: 100.0 mg/kg/injection, schedule: Q01DX009 (ip), vehicle: Klucel (hydroxypropylcellulose) (HPC)): 98 % of control; T/C [1]: 94 % of control; T/C (dose: 200.0 mg/kg/injection, schedule: Q01DX009 (ip), vehicle: Klucel (hydroxypropylcellulose) (HPC)): 96 % of control; T/C [2]: 103 % of control; T/C (dose: 400.0 mg/kg/injection, schedule: Q01DX009 (ip), vehicle: Klucel (hydroxypropylcellulose) (HPC)): 109 % of control; T/C [3]: 100 % of control

How did the T/C [10] turn out when `Cc1cccc2c(=O)c3ccccc3oc12` was run?
The T/C was 98 % of control and 104 % of control.

What about the T/C [11] of the same molecule?
Its T/C is 95 % of control and 101 % of control.

And the T/C [12]?
The T/C was 93 % of control and 97 % of control.

Which T/C (dose: 100.0 mg/kg/injection, schedule: Q04DX003 (ip), vehicle: saline with Tween-80) does the source give for `Cc1cc2nc(CC(O)(C(F)(F)F)C(F)(F)F)oc2cc1C` here?
The T/C was 96 % of control.

What about the T/C (dose: 200.0 mg/kg/injection, schedule: Q04DX003 (ip), vehicle: saline with Tween-80) of the same molecule?
Its T/C is 102 % of control.

What about the T/C (dose: 400.0 mg/kg/injection, schedule: Q04DX003 (ip), vehicle: saline with Tween-80) of the same molecule?
The T/C was 101 % of control.

For `NC(=O)c1cn(C2OC(CO)C(O)C2O)c2nc(Cl)nc(N)c12` (stereo not drawn), which T/C (dose: 3.12 mg/kg/injection, schedule: Q01DX009 (ip), vehicle: saline) is on record?
Its T/C is 96 % of control.

What about the T/C (dose: 6.25 mg/kg/injection, schedule: Q01DX009 (ip), vehicle: saline) of the same molecule?
The T/C was 106 % of control.

What about the T/C (dose: 12.5 mg/kg/injection, schedule: Q01DX009 (ip), vehicle: saline) of the same molecule?
Its T/C is 101 % of control.

And the T/C (dose: 25.0 mg/kg/injection, schedule: Q01DX009 (ip), vehicle: saline)?
Its T/C is 106 % of control.

What about the T/C [8] of the same molecule?
Its T/C is 115 % of control.
